Assay results taken from patent publication US20150258106A1, “METHODS FOR ACUTE AND LONG-TERM TREATMENT OF SUBSTANCE ABUSE” (DEMERX, INC., priority 2014, published 2015).

Assay: Pharmacokinetics of noribogaine in healthy volunteers, ascending single oral dose (plasma noribogaine and noribogaine glucuronide)
Settings: for AUC0-216 / AUC0-∞ / Cmax / Tmax / t1/2: healthy male volunteers, n = 6, mean (SD)
[1] = glucuronide in plasma after single oral 30 mg noribogaine dose
[2] = glucuronide in plasma after single oral 60 mg noribogaine dose
[3] = plasma noribogaine glucuronide, 30 mg and 60 mg dose groups

CC[C@H]1C[C@@H]2C[C@H]3c4[nH]c5ccc(OC6OC(C(=O)O)C(O)C(O)C6O)cc5c4CCN(C2)[C@@H]13 (some centres unmarked) [Noribogaine glucuronide, noribogaine glucuronide]
proportion of noribogaine glucuronide Cmax and AUC relative to noribogaine (both dose groups (30 mg, 60 mg)): 3-4% | AUC0-216 [1]: 25.7 (9.1) ng · hr/ml | AUC0-∞ [1]: 25.8 (9.3) ng · hr/ml | Cmax [1]: 1.8 (0.6) ng/ml | Tmax [1]: 3.0 (0.6) hr | t1/2 [1]: 20.6 (4.9) hr | AUC0-216 [2]: 65.0 (21.5) ng · hr/ml | AUC0-∞ [2]: 67.1 (21.9) ng · hr/ml | Cmax [2]: 4.1 (1.2) ng/ml | Tmax [2]: 3.8 (1.2) hr | t1/2 [2]: 23.1 (3.0) hr | Mean half-life [3]: 21 to 23 h | time of peak concentrations after noribogaine dosing [3]: 3 to 4 h | time by which noribogaine glucuronide was detected in all subjects (plasma, after 30 mg or 60 mg noribogaine dose): ≤ 0.75 h
